Data reported in US12091561B2, “Recording method and recording apparatus” (Seiko Epson Corporation, priority 2021, dated 2024).

Description: The solubility is measured as described below. A predetermined amount of a compound is mixed with 100 g of water in an environment at 25° C. and is then stirred for 30 minutes. […] As described above, when a predetermined amount of the compound is mixed with 100 g of water, the maximum predetermined amount which is judged to be dissolved is used as the solubility.

Row | SOLUBILITY [g/100 g OF WATER] | SMILES
1 | >100 g/100 g OF WATER | O=C1CCCCCN1 [ε-CAPROLACTAM, ε-caprolactam]
2 | ∞ | CC(O)CO (stereo not drawn) [PROPYLENE GLYCOL, propylene glycol]
3 | ∞ | CC(C)(O)C(C)(C)O [PINACOL, pinacol]

Continued, compound first:

Row | SMILES | SOLUBILITY [g/100 g OF WATER]
4 | CC(C)(O)CCC(C)(C)O [2,5-dimethyl-2,5-hexanediol] | 14 g/100 g OF WATER
5 | CC(C)(CO)CO [NEOPENTYL GLYCOL, neopentyl glycol] | 80 g/100 g OF WATER
6 | OC1CCCCC1O (stereo not drawn) [1,2-CYCLOHEXANEDIOL, 1,2-cyclohexanediol] | >100 g/100 g OF WATER
